# Assays:
# [1] = system: MRSA BF4; test: MIC assay (micro-dilution); assay type: cell-based, S. aureus; conditions: Staphylococcus aureus; daptomycin-intermediate resistant MRSA strain BF4
# Method: Minimal inhibitory concentration (MIC) assay. The MICs of antibiotics were determined by the standard micro-dilution method recommended by the Clinical and Laboratory Standards Institute. MIC assays were conducted in biological triplicate.
# [2] = Giant unilamellar vesicles (GUVs) assay, bacterial mimetic
# Method: Giant unilamellar vesicles (GUVs) assay. GUVs were prepared by slightly modifying the electroformation method described previously. 1,2-dioleoyl-sn-glycero-3-phosphocholine (DOPC), 1,2-dioleoyl-sn-glycero-3-phospho-(1′-rac-glycerol) (DOPG), 1-palmitoyl-2-oleoyl-glycero-3-phosphocholine (POPC), cholesterol (ovine wool) and 1,2-dioleoyl-sn-glycero-3-phosphoethanolamine-N-(lissamine rhodamine B sulfonyl) (18:1 Liss Rhod PE) were purchased from Avanti Polar Lipids (Alabaster, Ala., USA). 4 mM lipid mixtures consisting of DOPC/DOPG/18:1 Liss Rhod PE (7:3:0.005) and POPC/cholesterol/18:1 Liss Rhod PE (7:3:0.005) were dissolved in chloroform respectively. Same procedure was used to prepare both kinds of GUVs. Indium tin oxide (ITO)-coated slides (50×75×1.1 mm, Delta Technologies, Loveland, Colo., USA) were coated with […] of the lipid mixture and dried in a vacuum chamber for 2 h to remove chloroform. An electroformation chamber was made by placing a 2 mm thick Teflon spacer between the two lipid-coated ITO slides. […] After adding 1 μl of compound solution to a well (final compound concentration: 1× MIC), the GUVs were observed and imaged with an optical microscope equipped with fluorescence contrast and a digital camera (63x objectives, Axio Observer. A1 & AxioCam MRm, Zeiss, Germany). […]
# [3] = system: S. aureus MW2; test: Membrane fluidity assay (Laurdan GP); assay type: cell-based; conditions: 1 h
# Method: Membrane fluidity assay. Bacterial membrane fluidity was estimated by slightly modifying previously described methods. An overnight culture of S. aureus MW2 was diluted 1:1,000 in 25 mL TSB. The diluted culture was grown to OD600˜1.5 at 37° C. with shaking at 200 rpm, followed by 10 min incubation with 10 μM Laurdan at room temperature in the dark (Sigma-Aldrich, Cat # 40227). The stained cell culture was washed with PBS 4 times and concentrated 2 times. 100 μL of the 2-fold concentrated culture was mixed with 100 μL of phosphate buffered saline (PBS) containing twice the desired concentrations of compounds in black, clear-bottom, 96-well plates (Corning no. 3904). After 1 h incubation at room temperature in the dark, the Laurdan fluorescence intensities were measured using a spectrophotometer (SpectraMax M2, Molecular Devices) with emission wavelengths of 435 nm and 490 nm upon excitation at 350 nm. The Laurdan GP was calculated using the formula GP=(I435−I490)/(I435+I490). All experiments were conducted in biological triplicate.
# [4] = Hepatic and renal toxicity (ALT, BUN) in infected mice; assay type: in vivo, mouse; conditions: 30 mg/kg i.p., every 12 h for 3 days
# Method: Deep-seated mouse thigh infection model. In vivo efficacy of bithionol alone or in combination with gentamicin against MRSA strain MW2 persisters was evaluated using a previously described neutropenic mouse thigh infection model with modifications. Six-week-old female CD-1 mice (20-25 g, Charles River Laboratories, Wilmington, Mass., USA) were rendered neutropenic by administering 150 mg/kg and 100 mg/kg of cyclophosphamide intraperitoneally (i.p.) at 4 days and 1 day before infection, respectively. On the day of infection, overnight culture of S. aureus MW2 were washed 3 times with sterile saline and diluted to ˜10^4 CFU/mL in saline. 50 μl of the diluted culture was injected to the right thigh of each mouse. Bithionol was dissolved in Kolliphor EL (Sigma-Aldrich, St Louis, Mo., USA)/ethanol 1:1 and then diluted 1:10 in saline to a final concentration of 30 mg/kg. […] The levels of alanine aminotransferase and blood urea nitrogen were analyzed with commercially available kits, following the manufacturer's protocol (Pointe Scientific, Canton, Mich., USA) to evaluate hepatic and renal toxicities. […] Statistical significance among each group in animal studies was analyzed by one-way ANOVA with post-hoc Tukey test using GraphPad Prism 7 (GraphPad Software, La Jolla, Calif., USA).
compound,measurement,setting,value
"Oc1c(Cl)cc(Cl)cc1Sc1cc(Cl)cc(Cl)c1O [bithionol, 6,6′-thio-bis-(2,4-dichlorophenol)]",MIC,[1],0.5 mg/L
same,effect on DOPC/DOPG GUVs,[2]; 1 μg/mL,Lipid aggregates formed on the surfaces of the GUVs
same,effect on DOPC/DOPG GUVs,[2]; 10 μg/mL,the GUVs burst
same,concentrations inducing a significant decrease in Laurdan GP,[3],over 8 μg/mL
same,hepatic or renal toxicity (ALT and BUN),[4],no signs of hepatic or renal toxicity

# Reference: patent US20220324796A1, “ANTIBIOTIC COMPOUNDS” (The General Hospital Corporation, priority 2019, published 2022)
